Laboratory results: patent publication US20260242478A1, “ANTIBODIES FOR TARGETING PSMA AND CD28 AND USES THEREOF” (Janux Therapeutics, Inc., priority 2023, published 2026)
Where no end group is shown, it is not given here.

What follows are substances tested against anti-CD28 Fab (SEQ ID NOs: 696, 697) (assay: anti-CD28 Fab binding to peptides, ELISA). Conditions: Table 25; anti-CD28 Fab.
Chain of anti-CD28 Fab (SEQ ID NOs: 696, 697) (as listed by the source): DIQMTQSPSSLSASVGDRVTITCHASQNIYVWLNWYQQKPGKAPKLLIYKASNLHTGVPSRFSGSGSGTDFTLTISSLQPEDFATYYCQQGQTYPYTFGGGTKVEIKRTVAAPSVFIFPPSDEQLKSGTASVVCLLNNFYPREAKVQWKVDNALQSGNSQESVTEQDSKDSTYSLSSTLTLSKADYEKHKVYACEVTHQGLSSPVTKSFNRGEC
Chain of anti-CD28 Fab (SEQ ID NOs: 696, 697) (as listed by the source): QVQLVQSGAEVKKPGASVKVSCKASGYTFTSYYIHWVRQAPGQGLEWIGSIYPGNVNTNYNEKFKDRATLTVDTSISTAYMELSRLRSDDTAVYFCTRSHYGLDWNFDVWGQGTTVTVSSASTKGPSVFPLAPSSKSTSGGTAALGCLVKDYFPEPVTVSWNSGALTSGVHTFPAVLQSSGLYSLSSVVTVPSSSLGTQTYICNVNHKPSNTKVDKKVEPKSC
Substance LCAAGASWPWPVCL [Peptide-138] has an EC50 of 13.1 nM.
LCAAGATYPWPLCL [Peptide-144] was tested, and the EC50 was 5.6 nM.
LCAAGATYPWPTCL [Peptide-147] showed an EC50 of 25.8 nM.
SCSAGAAYYWPWCL [Peptide-151] showed an EC50 of 112 nM.
Substance SCSAGAHYPWPQCF [Peptide-148] has an EC50 of 19 nM.
TCAAGAAWGWPLCF [Peptide-143] gave an EC50 of 5.6 nM.
TCAAGAAWPWPQCL [Peptide-140] showed an EC50 of 2.6 nM.
In the case of TCAAGAHYPWPACL [Peptide-154], the EC50 is reported as 4.2 nM.
TCAAGATWSWPACF [Peptide-142] was tested, and the EC50 was 4.5 nM.
In the case of TCAAGATYLWPTCL [Peptide-153], the EC50 is reported as 20.5 nM.
TCSAGAAYPWPLCL [Peptide-145] gave an EC50 of 4.4 nM.
Substance TCSAGAAYSWPACF [Peptide-146] has an EC50 of 24.3 nM.
With TCSAGAHYPWPICL [Peptide-150] the EC50 was 10.6 nM.
In the case of TCSAGASYPWPLCL [Peptide-139], the EC50 is reported as 5.3 nM.
Work on TCSAGATWAWPLCF [Peptide-152] yielded an EC50 of 15.6 nM.
Work on TCSAGATWPWPICL [Peptide-137] yielded an EC50 of 2.1 nM.
TCSAGATYEWPRCL [Peptide-149] was tested, and the EC50 was 12.8 nM.
TCSAGATYTWPKCF [Peptide-141] was tested, and the EC50 was 15.7 nM.

Same assay, conditions: Table 26; anti-CD28 Fab
In the case of HCSGHHWLQVWKCF [Peptide-130], the EC50 is reported as over 1000 nM.
Substance YCEGHAPEYIGKCL [Peptide-136] has an EC50 of 44.9 nM.
In the case of YCEGHAPEYIRKCL [Peptide-122], the EC50 is reported as 7.8 nM.
YCEGHAPEYIWKCL [Peptide-123] showed an EC50 of 8.1 nM.
In the case of YCEGHEGIYFWKCL [Peptide-119], the EC50 is reported as 128 nM.
YCEGHLPEYLEKCV [Peptide-133] gave an EC50 of 32.5 nM.
For YCEGHLPEYLGKCL [Peptide-125], the EC50 was 12.1 nM.
YCEGHRPEYILKCL [Peptide-118] was tested, and the EC50 was 65.8 nM.
With YCEGHSPEYILKCL [Peptide-117] the EC50 was 11 nM.
For YCEGHSQENIWKCL [Peptide-124], the EC50 was 28.1 nM.
YCEGHSQEYLWKCL [Peptide-128] was tested, and the EC50 was 59.4 nM.
YCEGHSSEYIQKCL [Peptide-129] showed an EC50 of 30.5 nM.
YCWSHSPPFIKKCY [Peptide-131] was tested, and the EC50 was over 1000 nM.

Each substance was assayed on anti-CD28 scFv (SEQ ID NO: 9) (assay: Kinetic binding of anti-CD28 scFv to peptides, bio-layer interferometry (Octet RED96)). Conditions: Table 34; CD28 scFv titrated 100-12.5 nM, 200 nM peptide loaded.
Chain of anti-CD28 scFv (SEQ ID NO: 9) (as listed by the source): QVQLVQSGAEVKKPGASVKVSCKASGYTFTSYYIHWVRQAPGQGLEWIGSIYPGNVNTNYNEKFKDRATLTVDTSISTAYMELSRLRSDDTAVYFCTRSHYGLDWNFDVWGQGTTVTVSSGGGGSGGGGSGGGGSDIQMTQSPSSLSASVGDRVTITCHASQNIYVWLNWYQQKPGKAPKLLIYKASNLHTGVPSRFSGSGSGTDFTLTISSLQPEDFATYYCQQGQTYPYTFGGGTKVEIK
Description: (§1) Briefly, streptavidin biosensors were loaded with biotinylated peptides and baselined in buffer. […] After a short association period, sensors were transferred into buffer and the dissociation of bound anti-CD28 scFv was measured. The timing and steps of the experiment are shown in the accompanying table. Association and dissociation signals were recorded in real time and analyzed using a 1:1 binding model within the instrument software. Analysis using a 1:1 binding model enabled the calculation of the on and off rate constants as well as affinity, KD.
as §1, with “KD. FIGS. 70A-70F illustrate kinetic binding of anti-CD28 scFv binding to peptides as measured by Octet. FIGS. 70G-70U illustrate kinetic binding of peptides to the anti-CD28 scFv as measured by Octet.” for “KD.”
For GYCHYWGDMVMWCG [Peptide-12], the kdis was 0.00167 s⁻¹ and the kon was 98700 M⁻¹ s⁻¹.
MDWCPRERWVDCFF [Peptide-9] gave a kdis of 0.0123 s⁻¹ and a kon of 32500 M⁻¹ s⁻¹.

Same assay, conditions: Table 36; anti-CD28 scFv titrated 100-12.5 nM, 200 nM peptide loaded
For MDWCPIDLWNECFF [Peptide-31], the Kd was 71.8 nM, the kdis was 0.00369 s⁻¹ and the kon was 51400 M⁻¹ s⁻¹.
Work on MDWCPIHLWHVCFN [Peptide-32] yielded a Kd of 49.9 nM, a kdis of 0.00295 s⁻¹ and a kon of 59100 M⁻¹ s⁻¹.
MDWCPIYLWSECFN [Peptide-33] showed a Kd of 52.8 nM, a kdis of 0.00153 s⁻¹ and a kon of 29000 M⁻¹ s⁻¹.
Substance MDWCPLHMWHECFS [Peptide-35] has a Kd of 127 nM, a kdis of 0.00497 s⁻¹ and a kon of 39000 M⁻¹ s⁻¹.
MDWCPLYLWNECFN [Peptide-36] showed a Kd of 68.7 nM, a kdis of 0.00252 s⁻¹ and a kon of 36700 M⁻¹ s⁻¹.
Substance MDWCPRDLWDLCFA [Peptide-37] has a Kd of 97.8 nM, a kdis of 0.00351 s⁻¹ and a kon of 35900 M⁻¹ s⁻¹.
With MDWCPRDLWHECFA [Peptide-38] the Kd was 92.3 nM, the kdis was 0.00277 s⁻¹ and the kon was 30000 M⁻¹ s⁻¹.
MDWCPRDLWHLCFS [Peptide-39] showed a Kd of 51.9 nM, a kdis of 0.00265 s⁻¹ and a kon of 51100 M⁻¹ s⁻¹.
Work on MDWCPRDLWSECFF [Peptide-40] yielded a Kd of 79.9 nM, a kdis of 0.0031 s⁻¹ and a kon of 38800 M⁻¹ s⁻¹.
With MDWCPRDMWDECFA [Peptide-42] the Kd was 152 nM, the kdis was 0.00433 s⁻¹ and the kon was 28400 M⁻¹ s⁻¹.
In the case of MDWCPRDMWSECFA [Peptide-43], the Kd is reported as 192 nM, the kdis is reported as 0.0032 s⁻¹ and the kon is reported as 16700 M⁻¹ s⁻¹.
MDWCPRDMWSVCFS [Peptide-44] was tested, and the Kd was 374 nM, the kdis was 0.00812 s⁻¹ and the kon was 21700 M⁻¹ s⁻¹.
MDWCPRERWVDCFF [Peptide-9] was tested, and the Kd was 278 nM, the kdis was 0.0115 s⁻¹ and the kon was 41500 M⁻¹ s⁻¹.
MDWCPRFMWDECFN [Peptide-45] gave a Kd of 134 nM, a kdis of 0.00364 s⁻¹ and a kon of 27100 M⁻¹ s⁻¹.
Work on MDWCPRHMWNYCFA [Peptide-46] yielded a Kd of 35.2 nM, a kdis of 0.00218 s⁻¹ and a kon of 61900 M⁻¹ s⁻¹.
In the case of MDWCPRSLWHECFA [Peptide-47], the Kd is reported as 51.8 nM, the kdis is reported as 0.00201 s⁻¹ and the kon is reported as 38900 M⁻¹ s⁻¹.
For MDWCPRYLWHVCFA [Peptide-48], the Kd was 21.1 nM, the kdis was 0.00187 s⁻¹ and the kon was 88900 M⁻¹ s⁻¹.
In the case of MDWCPVHLWSVCFA [Peptide-50], the Kd is reported as 48 nM, the kdis is reported as 0.00443 s⁻¹ and the kon is reported as 92300 M⁻¹ s⁻¹.
With MHWCPVDLWYLCYN [Peptide-49] the Kd was 21.1 nM, the kdis was 0.00186 s⁻¹ and the kon was 88200 M⁻¹ s⁻¹.
Work on MNWCPKDIWYLCFN [Peptide-34] yielded a Kd of 88.8 nM, a kdis of 0.00684 s⁻¹ and a kon of 77000 M⁻¹ s⁻¹.

Each substance was assayed against PSMA Fab (SEQ ID NOs: 19, 20) binding to the PSMA antigen (assay: Inhibition of PSMA Fab binding to PSMA by peptides, competition ELISA (incl. alanine scanning)). Conditions: Table 39; PSMA Fab fixed at 0.3 nM, peptide 0-100 μM.
Chain of PSMA Fab (SEQ ID NOs: 19, 20) binding to the PSMA antigen (as listed by the source): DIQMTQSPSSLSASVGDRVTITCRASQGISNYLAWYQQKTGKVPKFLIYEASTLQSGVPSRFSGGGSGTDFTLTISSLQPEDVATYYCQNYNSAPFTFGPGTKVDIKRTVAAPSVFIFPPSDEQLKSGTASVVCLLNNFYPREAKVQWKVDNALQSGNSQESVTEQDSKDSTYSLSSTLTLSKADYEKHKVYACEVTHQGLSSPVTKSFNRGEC
Chain of PSMA Fab (SEQ ID NOs: 19, 20) binding to the PSMA antigen (as listed by the source): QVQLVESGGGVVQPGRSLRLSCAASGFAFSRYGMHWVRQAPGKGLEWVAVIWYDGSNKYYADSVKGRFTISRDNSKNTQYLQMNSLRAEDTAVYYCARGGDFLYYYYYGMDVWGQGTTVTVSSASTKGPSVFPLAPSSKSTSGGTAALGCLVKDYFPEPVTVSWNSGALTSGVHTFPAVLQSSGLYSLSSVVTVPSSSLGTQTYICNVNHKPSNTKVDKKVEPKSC
Chain of PSMA Fab (SEQ ID NOs: 19, 20) binding to the PSMA antigen (Q04609 whole entry partner): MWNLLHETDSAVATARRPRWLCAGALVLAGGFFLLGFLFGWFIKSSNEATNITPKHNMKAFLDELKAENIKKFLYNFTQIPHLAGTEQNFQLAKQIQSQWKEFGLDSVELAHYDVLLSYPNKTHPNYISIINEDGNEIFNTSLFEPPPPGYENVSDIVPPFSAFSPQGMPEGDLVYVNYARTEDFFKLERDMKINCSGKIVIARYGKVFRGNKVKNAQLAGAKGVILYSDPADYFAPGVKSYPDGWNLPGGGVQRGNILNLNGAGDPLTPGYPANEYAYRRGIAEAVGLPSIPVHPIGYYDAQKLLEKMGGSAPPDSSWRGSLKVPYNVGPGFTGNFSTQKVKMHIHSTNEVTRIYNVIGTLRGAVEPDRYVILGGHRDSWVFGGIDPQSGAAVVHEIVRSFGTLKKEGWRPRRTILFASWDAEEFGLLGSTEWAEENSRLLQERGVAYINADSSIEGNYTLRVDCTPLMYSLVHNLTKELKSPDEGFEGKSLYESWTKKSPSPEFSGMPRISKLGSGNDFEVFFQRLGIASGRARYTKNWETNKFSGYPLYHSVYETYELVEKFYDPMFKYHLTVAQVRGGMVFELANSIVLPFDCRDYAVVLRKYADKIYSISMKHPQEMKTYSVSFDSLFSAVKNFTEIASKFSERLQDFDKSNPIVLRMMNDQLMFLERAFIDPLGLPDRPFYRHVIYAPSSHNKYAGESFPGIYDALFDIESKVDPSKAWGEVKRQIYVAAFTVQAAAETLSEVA
Set-up: key to Mutation Status: tolerant (T); somewhat tolerant (ST); intolerant (IT)
Description: PSMA Fab fixed at 0.3 nanomolar (nM) concentration was pre-incubated with 0-100 micromolar (μM) titrated peptides. After a short pre-incubation period, the mixture of titrated peptide with fixed PSMA Fab were added to the PSMA antigen coated plates. After a short incubation on the plates, bound PSMA Fab was detected with a standard horse radish peroxidase conjugated secondary antibody.
The tables also designate each alanine mutation as tolerant (T), somewhat tolerant (ST), or intolerant (IT) based on changes in binding inhibition ability relative to the non-mutated peptide. Cys-5 and Cys-11 of peptide-179 and peptide-180 were not mutated.
Work on FVPCIPSHWLCPIW [Peptide-191] yielded an IC50 of over 100000 nM.
FWECYSSFCRFVEG [Peptide-196] gave an IC50 of over 100000 nM.
In the case of HCEFHDYQSCDVLY [Peptide-211], the IC50 is reported as over 100000 nM.
HCLWHESSGRVLCF [Peptide-192] showed an IC50 of over 100000 nM.

Same assay, conditions: Table 40; alanine scanning of Peptide-179, change in binding inhibition relative to non-mutated peptide
AMKWCTPRWMCAAE [Peptide-241] was tested, and the “Mutation Status” value was “T”.

Same assay, conditions: Table 41; alanine scanning of Peptide-180, change in binding inhibition relative to non-mutated peptide
AAVLCQPNWMCAGF [Peptide-251] was tested, and the “Mutation Status” value was “T”.
For IAALCQPNWMCAGF [Peptide-252], the “Mutation Status” value was “T”.
In the case of IAVACQPNWMCAGF [Peptide-253], the “Mutation Status” value is reported as “ST”.
IAVLCAPNWMCAGF [Peptide-254] was tested, and the “Mutation Status” value was “T”.

Same assay, conditions: Table 43; SAR guided optimization phage library of peptide-179
Substance EPKWCVPRGLCNYD [Peptide-240] has an IC50 of over 100000 nM.

The substances below were run on PSMA Fab (assay: Phage binding ELISA, PSMA Fab, with or without PSMA antigen (peptide-179 and peptide-180 libraries)). Conditions: peptide-180 library clonal phage; background (no Fab).
Description: (§2) Once the phage optimization libraries were completed, phage libraries were bio-panned using PSMA Fab loaded beads. Multiple rounds of panning were performed where bacteriophage was allowed to bind to PSMA Fab loaded beads. washed. eluted, and amplified. After panning, phage infected bacteria were plated out and colonies picked into 96 well blocks. Clonal phage was then amplified and separated from bacterial cells via centrifugation. Phage containing supemnatants were tested in binding ELISAs against PSMA Fab coated plates in the presence or absence of saturating concentrations of PSMA antigen. Phage able to bind PSMA Fab were selected for sequence analysis if the binding signal was reduced in the presence of PSMA.
Clonal phage were harvested as crude supernatants and screened via standard ELISAs. Briefly, biotinylated PSMA Fab was captured on neutravidin coated plates. Prior to the addition of clonal phage. wells were incubated with blocking buffer and PSMA antigen or blocking buffer alone. Without washing or aspirating, clonal phage supernatants were then added to the wells and incubated for a short time. Wells were then washed followed by detection of bound phage using a horse radish conjugated anti-M13 antibody. Clonal phage of interest were then sent for sequence analysis.
as §2, with “beads, washed,” for “beads. washed.”, “supernatants” for “supemnatants”
For “Phage-2857 (LERACVPSWMCTGF; not fully specified; cysteine pairing not given here)”, the “Phage binding ELISA Background signal” value was 0.0649.
For “Phage-2858 (TQAMCKPAWMCQGF; not fully specified; cysteine pairing not given here)”, the “Phage binding ELISA Background signal” value was 0.0585.
In the case of “Phage-2859 (WEFVCKPEWMCTGF; not fully specified; cysteine pairing not given here)”, the “Phage binding ELISA Background signal” value is reported as 0.0551.
In the case of “Phage-2860 (EWILCKPAWMCDGL; not fully specified; cysteine pairing not given here)”, the “Phage binding ELISA Background signal” value is reported as 0.051.
“Phage-2861 (WDRLCIPAWMCSGF; not fully specified; cysteine pairing not given here)” was tested, and the “Phage binding ELISA Background signal” value was 0.0903.
With “Phage-2862 (TGAYCVPQWMCSGF; not fully specified; cysteine pairing not given here)” the “Phage binding ELISA Background signal” value was 0.0638.
“Phage-2863 (FNVMCRPAWMCDFL; not fully specified; cysteine pairing not given here)” was tested, and the “Phage binding ELISA Background signal” value was 0.1545.
With Phage-2864 (IETWCVPRWMCEGF) the “Phage binding ELISA Background signal” value was 0.0693.
In the case of Phage-2865 (MSPLCKPVWMCAGF), the “Phage binding ELISA Background signal” value is reported as 0.0586.
In the case of Phage-2866 (TSPACVPSWMCVGF), the “Phage binding ELISA Background signal” value is reported as 0.0552.
Phage-2867 (VLPMCSPPWMCIGL) was tested, and the “Phage binding ELISA Background signal” value was 0.0631.
Phage-2868 (EPIRCVPQWMCVGF) was tested, and the “Phage binding ELISA Background signal” value was 0.0882.
With Phage-2869 (WPQLCVPMWMCAGL) the “Phage binding ELISA Background signal” value was 0.1456.
